From patent publication US8575158B2, “1-phenyl-substituted heterocyclyl derivatives and their use as prostaglandin D2 receptor modulators” (Actelion Pharmaceuticals Ltd., priority 2010, dated 2013) come the findings set out here.

As usually defined, the IC50 is the midpoint of a concentration-inhibition curve. Low values mean greater potency in that assay, high ones weaker potency in that assay.

This experiment concerns the target T1, hCRTH2 receptor (Homo sapiens, UniProt Q9Y5Y4).
T1 construct: expressed in transfected cells; host or cells: HEK293
T1 sequence (Q9Y5Y4 1-395): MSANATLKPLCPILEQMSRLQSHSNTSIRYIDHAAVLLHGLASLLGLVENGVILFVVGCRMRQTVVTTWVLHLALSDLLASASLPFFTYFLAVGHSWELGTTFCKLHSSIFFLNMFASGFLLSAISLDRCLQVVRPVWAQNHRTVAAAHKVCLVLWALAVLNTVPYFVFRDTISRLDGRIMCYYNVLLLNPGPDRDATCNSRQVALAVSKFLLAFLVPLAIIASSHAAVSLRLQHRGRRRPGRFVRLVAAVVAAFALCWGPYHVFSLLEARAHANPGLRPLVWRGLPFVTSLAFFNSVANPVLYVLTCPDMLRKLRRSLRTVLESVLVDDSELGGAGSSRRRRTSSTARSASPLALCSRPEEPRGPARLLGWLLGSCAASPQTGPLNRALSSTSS
Briefly: Radioligand displacement assay (3H-PGD2) on hCRTH2 receptor membranes. In kind it is binding. Conditions: antagonistic activity, 3H-PGD2 radioligand displacement, HEK293-hCRTH2 membranes. A general note: In a radioligand displacement assay an active substance lowers the binding of a labelled ligand.
On to `O=C(O)COc1ccc(Cl)cc1[C@@H]1c2ccc(F)cc2CCN1C(=O)OCn1ncc2ccccc21` [Example 347, (S)-1-(2-Carboxymethoxy-5-chloro-phenyl)-6-fluoro-3,4-dihydro-1H-isoquinoline-2-carboxylic acid indazol-1-ylmethyl ester], for which the 50% inhibitory concentration (IC50) is 0.87 nM.
For the compound `O=C(O)COc1ccc(Cl)cc1[C@@H]1c2ccc(F)cc2CCN1C(=O)OCc1noc2ccccc12` [Example 348, (S)-1-(2-Carboxymethoxy-5-chloro-phenyl)-6-fluoro-3,4-dihydro-1H-isoquinoline-2-carboxylic acid benzo[d]isoxazol-3-ylmethyl ester], the IC50 turned out to be 0.4 nM.
To `O=C(O)COc1ccc(Cl)cc1[C@@H]1c2ccc(F)c(F)c2CCN1C(=O)OCc1ccccc1F` [Example 349, (S)-1-(2-Carboxymethoxy-5-chloro-phenyl)-5,6-difluoro-3,4-dihydro-1H-isoquinoline-2-carboxylic acid 2-fluoro-benzyl ester] belongs 8.99 nM.
To `O=C(O)COc1ccc(Cl)cc1[C@@H]1c2ccc(F)c(F)c2CCN1C(=O)OCc1cccc(F)c1` [Example 350, (S)-1-(2-Carboxymethoxy-5-chloro-phenyl)-5,6-difluoro-3,4-dihydro-1H-isoquinoline-2-carboxylic acid 3-fluoro-benzyl ester] belongs 3.38 nM; to `O=C(O)COc1ccc(Cl)cc1[C@@H]1c2ccc(F)c(F)c2CCN1C(=O)OCc1cccc(F)c1F` [Example 351, (S)-1-(2-Carboxymethoxy-5-chloro-phenyl)-5,6-difluoro-3,4-dihydro-1H-isoquinoline-2-carboxylic acid 2,3-difluoro-benzyl ester], 3.27 nM.
The result for `O=C(O)COc1ccc(Cl)cc1[C@@H]1c2ccc(F)cc2CCN1C(=O)OCc1ccccc1F` [Example 352, (S)-1-(2-Carboxymethoxy-5-chloro-phenyl)-6-fluoro-3,4-dihydro-1H-isoquinoline-2-carboxylic acid 2-fluoro-benzyl ester] reads 1.87 nM.
The compound `O=C(O)COc1ccc(Cl)cc1[C@@H]1c2ccc(F)cc2CCN1C(=O)OCc1cccc(F)c1` [Example 353, (S)-1-(2-Carboxymethoxy-5-chloro-phenyl)-6-fluoro-3,4-dihydro-1H-isoquinoline-2-carboxylic acid 3-fluoro-benzyl ester] returned a 50% inhibitory concentration (IC50) of 2.79 nM.
The result for `O=C(O)COc1ccc(Cl)cc1[C@@H]1c2ccc(F)cc2CCN1C(=O)OCc1cccc(F)c1F` [Example 354, (S)-1-(2-Carboxymethoxy-5-chloro-phenyl)-6-fluoro-3,4-dihydro-1H-isoquinoline-2-carboxylic acid 2,3-difluoro-benzyl ester] reads 7.72 nM.
Compound `O=C(O)COc1ccc(Cl)cc1[C@@H]1c2ccccc2CCN1C(=O)OCc1cccc(F)c1` [Example 355, (S)-1-(2-Carboxymethoxy-5-chloro-phenyl)-3,4-dihydro-1H-isoquinoline-2-carboxylic acid 3-fluoro-benzyl ester] came in with an IC50 of 2.01 nM.
`COc1ccccc1COC(=O)N1CCc2ccccc2[C@H]1c1cc(Cl)ccc1OCC(=O)O` [Example 356, (S)-1-(2-Carboxymethoxy-5-chloro-phenyl)-3,4-dihydro-1H-isoquinoline-2-carboxylic acid 2-methoxy-benzyl ester] yielded an IC50 of 3.58 nM.
To `O=C(O)COc1ccc(Cl)cc1[C@@H]1c2ccccc2CCN1C(=O)OCc1ccccc1F` [Example 357, (S)-1-(2-Carboxymethoxy-5-chloro-phenyl)-3,4-dihydro-1H-isoquinoline-2-carboxylic acid 2-fluoro-benzyl ester] belongs 1.23 nM; to `O=C(O)COc1ccc(Cl)cc1[C@@H]1c2cccc(F)c2CCN1C(=O)OCc1cccc(F)c1` [Example 358, (S)-1-(2-Carboxymethoxy-5-chloro-phenyl)-5-fluoro-3,4-dihydro-1H-isoquinoline-2-carboxylic acid 3-fluoro-benzyl ester], 2.84 nM; to `O=C(O)COc1ccc(Cl)cc1[C@@H]1c2cccc(F)c2CCN1C(=O)OCc1ccccc1F` [Example 359, (S)-1-(2-Carboxymethoxy-5-chloro-phenyl)-5-fluoro-3,4-dihydro-1H-isoquinoline-2-carboxylic acid 2-fluoro-benzyl ester], 1.79 nM.
Compound `O=C(O)COc1ccc(Cl)cc1[C@@H]1c2ccc(F)cc2CCN1C(=O)OCc1ccccc1` [Example 367] displayed an IC50 of 4.89 nM.
To `Cc1nn(CCC(=O)N2CCc3cc(F)ccc3[C@H]2c2cc(Cl)ccc2OCC(=O)O)c2cccc(F)c12` [Example 391] belongs 158 nM; to `Cc1nn(CCC(=O)N2CCc3cc(F)ccc3[C@H]2c2cc(Cl)ccc2OCC(=O)O)c2c(F)cccc12` [Example 392], 273 nM; to `Cc1nn(CCC(=O)N2CCc3cc(F)ccc3[C@H]2c2cc(Cl)ccc2OCC(=O)O)c2cc(F)ccc12` [Example 393], 154 nM.
The result for `Cc1nn(CCC(=O)N2CCc3cc(F)ccc3[C@H]2c2cc(Cl)ccc2OCC(=O)O)c2cc(Cl)ccc12` [Example 394] reads 185 nM; that for `O=C(O)COc1ccc(Cl)cc1[C@@H]1c2ccc(F)cc2CCN1C(=O)CCn1ncc2cc(F)ccc21` [Example 395, (4-Chloro-2-{(S)-6-fluoro-2-[3-(5-fluoro-indazol-1-yl)-propionyl]-1,2,3,4-tetrahydro-isoquinolin-1-yl}-phenoxy)-acetic acid], 28.4 nM.
For the compound `O=C(O)COc1ccc(Cl)cc1[C@@H]1c2ccc(F)cc2CCN1C(=O)CCn1ncc2cc(Cl)ccc21` [Example 396], the half-inhibitory concentration (IC50) was 152 nM.
`Cc1nn(CCC(=O)N2CCc3cc(F)ccc3[C@H]2c2cc(Cl)ccc2OCC(=O)O)c2ccccc12` [Example 397, (4-Chloro-2-{(S)-6-fluoro-2-[3-(3-methyl-indazol-1-yl)-propionyl]-1,2,3,4-tetrahydro-isoquinolin-1-yl}-phenoxy)-acetic acid] showed an IC50 of 32.1 nM.
To `O=C(O)COc1ccc(Cl)cc1[C@@H]1c2ccc(F)cc2CCN1C(=O)CCn1ncc2ccc(F)cc21` [Example 398] belongs 64.7 nM.
The result for `O=C(O)COc1ccc(Cl)cc1[C@@H]1c2ccc(F)cc2CCN1C(=O)CCn1ncc2c(F)cccc21` [Example 399] reads 144 nM; that for `O=C(O)COc1ccc(Cl)cc1[C@@H]1c2ccc(F)cc2CCN1C(=O)CCn1ncc2cccc(Cl)c21` [Example 400], 678 nM.
Take `O=C(O)COc1ccc(Cl)cc1[C@@H]1c2ccc(F)cc2CCN1C(=O)CCn1ncc2ccc(Cl)cc21` [Example 401, (4-Chloro-2-{(S)-2-[3-(6-chloro-indazol-1-yl)-propionyl]-6-fluoro-1,2,3,4-tetrahydro-isoquinolin-1-yl}-phenoxy)-acetic acid]: the IC50 was 46.9 nM.
To `O=C(O)COc1ccc(Cl)cc1[C@@H]1c2ccc(F)cc2CCN1C(=O)CCn1ncc2c(Cl)cccc21` [Example 402] belongs 170 nM; to `O=C(O)COc1ccc(Cl)cc1[C@@H]1c2ccc(F)cc2CCN1C(=O)CCn1ncc2cccc(F)c21` [Example 403], 79.1 nM.
To `CC[C@@H]1C[C@H]1C(=O)N1CCc2ccccc2[C@H]1c1cc(Cl)ccc1OCC(=O)O` [Example 460] belongs 67.8 nM.
The result for `CCO[C@@H]1C[C@H]1C(=O)N1CCc2ccccc2[C@H]1c1cc(Cl)ccc1OCC(=O)O` [Example 461] reads 185 nM; that for `C[C@@H]1C[C@H]1C(=O)N1CCc2ccccc2[C@H]1c1cc(Cl)ccc1OCC(=O)O` [Example 462], 80.9 nM; that for `O=C(O)COc1ccc(Cl)cc1C1c2ccccc2CN1C(=O)C1CC1c1ccccc1` (stereo not drawn) [Example 503, {4-Chloro-2-[2-trans-(2-phenyl-cyclopropanecarbonyl)-2,3-dihydro-1H-isoindol-1-yl]-phenoxy}-acetic acid], 11.2 nM.
`O=C(O)COc1ccc(Cl)cc1C1c2ccccc2CN1C(=O)C1CC1c1cccc(F)c1` (stereo not drawn) [Example 523, (4-Chloro-2-{2-trans-[2-(3-fluoro-phenyl)-cyclopropanecarbonyl]-2,3-dihydro-1H-isoindol-1-yl}-phenoxy)-acetic acid] had an IC50 of 40.5 nM.
With `O=C(O)COc1ccc(Cl)cc1C1c2ccccc2CN1C(=O)C1CC1c1cccc(Cl)c1` (stereo not drawn) [Example 524, (4-Chloro-2-{2-trans-[2-(3-chloro-phenyl)-cyclopropanecarbonyl]-2,3-dihydro-1H-isoindol-1-yl}-phenoxy)-acetic acid], the IC50 turned out to be 81.3 nM.
To `O=C(O)COc1ccc(Cl)cc1C1c2ccccc2CN1C(=O)C1CC1c1ccccc1F` (stereo not drawn) [Example 525, (4-Chloro-2-{2-trans-[2-(2-fluoro-phenyl)-cyclopropanecarbonyl]-2,3-dihydro-1H-isoindol-1-yl}-phenoxy)-acetic acid] belongs 13.5 nM; to `O=C(O)COc1ccc(Cl)cc1C1c2ccccc2CN1C(=O)CCn1ncc2cc(Cl)ccc21` (centres unmarked) [Example 544], 340 nM.
To `O=C(O)COc1ccc(Cl)cc1C1c2ccccc2CN1C(=O)CCn1ncc2ccc(Cl)cc21` (centres unmarked) [Example 549] belongs 180 nM; to `O=C(O)COc1ccc(Cl)cc1C1c2ccccc2CN1C(=O)CCn1ncc2c(Cl)cccc21` (centres unmarked) [Example 550], 240 nM.
The result for `Cc1ccccc1[C@@H]1C[C@H]1C(=O)N1CCc2ccccc2[C@H]1c1cc(Cl)ccc1OCC(=O)O` [Example 560, {4-Chloro-2-[(S)-2-((1R,2R)-2-o-tolyl-cyclopropanecarbonyl)-1,2,3,4-tetrahydro-isoquinolin-1-yl]-phenoxy}-acetic acid] reads 3.27 nM.
